Tests used:
[1] = tested on: patient-derived GBM43 glioblastoma spheroids; test: GBM43 spheroid viability (Alamar blue); format: cell-based, human; conditions: for cytotoxicity at 10 µM: Homo sapiens, GBM43 cell, read-out: inhibition of GBM43 cell viability; for effect on GBM43 cancer cell viability / growth: three-dimensional spheroids
Protocol: Early-passage GBM43 cells were cultured in ultralow adherence plates (Corning Inc.) at 1 to 2×10^3 cells/mL in DMEM supplemented with 1% […] (Invitrogen), 2% B27 (Invitrogen), 25 ng/mL epidermal growth factor (EGF, 25 ng/mL fibroblast growth factor (FGF) (R&D Systems, Inc.), […], 2 ng/mL platelet growth factor, and 100 ng/mL each of penicillin and streptomycin (Invitrogen Inc.). Individual cells were recovered from spheres by incubation with Accutase (Sigma-Aldrich) for 10-15 minutes. Cells (50-100/well) were then seeded in fresh sphere-forming media in 96-well plates. After 2-3 days, Neurospheres containing 6 to 8 cells were treated with compounds 1, 2, and 5.
HEK-293 were cultured in DMEM with glutamine (Cellgro, Manassas, Va.) supplemented with 10% FBS and 1% penicillin/streptomycin in a 5% CO2 atmosphere at 37° C. Tumors were expanded by passage in the flank of NOD/SCIDγnull mice. To generate GBM43 cell lines, tumors were harvested, disaggregated, and maintained in 2.5% FBS for 14 days on Matrigel-coated plates (BD Biosciences) to remove murine fibroblasts. In-vitro GBM43 cell lines were propagated in DMEM with 10% FBS for no more than 7 passages. Cell line identity was confirmed by DNA fingerprint analysis (IDEXX BioResearch) for species and baseline short-tandem repeat analysis testing. GBM43 spheroids were generated by plating early-passage cells at 2.5×10^4 cells per well in 96-well ultralow attachment plates (Corning Inc.) in DMEM/F12 (1:1; GIBCO) supplemented with 2% B27 supplement (GIBCO), 20 ng/mL epidermal growth factor (EGF), and 20 ng/mL fibroblast growth factor (FGF) (Peprotech) for 2 days. The spheroids were then treated with compounds 1, 2, and 5 and growth analyzed by Alamar blue staining.

[2] = biological target: T1, TEAD4 binding to full-length Yap1 (Homo sapiens, UniProt Q15561); test: Biolayer interferometry, TEAD4 binding to captured full-length GST-Yap1; conditions: 100 nM TEAD4 pre-incubated 24 or 48 h at 4° C.
T1 construct: TEAD4 (217-434), TEAD4 (217-434) Cys367Ser mutant and Yap1 (Full-length) were expressed as GST-fusion proteins; GST (N); made in house; host or cells: E. coli BL-21 (DE3), pGEX-6P-1
Protocol: Biolayer interferometry was measured on OctetRed 384 (ForteBio, Menlo Park, Calif.) using PBS with 0.025% v/v Tween-20 at 30° C. with constant shaking at 1000 rpm. Streptavidin-conjugated sensors (ForteBio, Menlo Park, Calif.) were loaded with 30 μg/ml biotin-labeled GST-Yap or biocytin and were introduced to 1-1000 nM TEAD4. The sensors were regenerated with 5 mM HCl solution after each interaction. For compound inhibition study, 100 nM TEAD4 was pre-incubated with […] compound 2 in 2% v/v DMSO for 24 h at 4° C. before interaction with captured GST-Yap.

[3] = tested on: CTGF transcript levels; test: qRT-PCR of CTGF transcript in HEK293 cells; format: cell-based; conditions: HEK293, 48 h
Protocol: HEK293 cells co-transfected the Flag-YAP and myc-TEAD4 constructs were incubated with DMSO or the indicated amount of compounds for 48 h. Total RNA was purified using the RNeasy plus mini kit (QIAGEN, Hilden, Germany) according to the manufacturer's instructions. Complementary DNA was synthesized from 500 ng total RNA with Oligo-dT primers and the Multi-Scribe reverse transcriptase (Fisher, Waltham, Mass.) according to the manufacturer's instructions.
Real-time PCR reactions utilized 100 ng cDNA, 200 nM gene specific primers and the Sensifast No-ROX mix (Bioline, Taunton, Mass.) in a total volume of 20 μl. All measurements were carried out in triplicate using an Eppendorf Mastercycler® RealPlex2. The sequences of primers for CTGF were forward, 5′-TTGGCCCAGACCCAACTA-3 (SEQ ID NO: 1); and reverse, 5′-GCAGGAGGCGTTGTCATT-3′ (SEQ ID. NO: 2). The primer sequences for (3-actin were forward, 5′-TTGGCAATGAGCGGTTCC-3 (SEQ ID NO: 3); and reverse, 5′-[…]-3′ (SEQ ID NO: 4).

[4] = biological target: TEAD4 (Homo sapiens, UniProt Q15561); test: Whole protein ESI mass spectrometry, adduct formation; format: binding; design: TEAD4 (217-434), TEAD4 (217-434) Cys367Ser mutant and Yap1 (Full-length) were expressed as GST-fusion proteins; GST (N, cleaved yes); made in house; host or cells: E. coli BL-21 (DE3), pGEX-6P-1; conditions: for covalent adduct formation with TEAD4: 10 μM TEAD4, 200 μM compound, 24 h at 4° C.
Protocol: The samples were centrifuged at 20,000×g for […] to remove precipitants before being injected into an empty column on an Agilent 1200 liquid chromatography system (Agilent, Santa Clara, Calif.), using 80% Buffer A (H2O, 5 mM NH4OAc) and 20% Buffer B (ACN, 5 mM NH4OAc), and the masses were detected on an Agilent 6520 Accurate Mass Q-TOF.
It was determined whether a covalent bond formed between inventive compounds and TEAD4. […] The covalent adduct formation by compound 2 was relatively fast (FIG. 3G), reaching nearly 100% adduct formation after 30 min incubation with TEAD4. Because the rate of inhibition developed over a longer timescale (FIG. 3C), compound 2 is proposed to induce a slow conformational change in TEAD4 that prevents its interaction with Yap1. To rule out the possibility that compound 2 induces slow aggregation of TEAD4, and not the proposed slow conformational change, GST-TEAD4 was incubated with DMSO compound 2 for 24 h at 4° C., followed by injection into an SEC column (FIG. 3H). […] A slight increase in dimer formation for the TEAD4 sample incubated with compound 2 occurred compared to the sample incubated with DMSO. […] Furthermore, it is highly unlikely that Cys-367 oxidation was responsible for the lack of 100% inhibition at longer times since it has been shown that covalent bond formation is rapid and complete within less than an hour.

Chain of TEAD4 (Q15561 217-434): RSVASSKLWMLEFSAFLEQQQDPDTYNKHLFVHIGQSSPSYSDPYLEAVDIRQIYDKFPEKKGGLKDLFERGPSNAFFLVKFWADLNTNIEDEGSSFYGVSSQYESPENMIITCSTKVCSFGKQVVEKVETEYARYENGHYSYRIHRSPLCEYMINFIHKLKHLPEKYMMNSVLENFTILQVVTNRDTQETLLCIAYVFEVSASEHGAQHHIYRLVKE
T1 sequence (Q15561 217-434): as above

In the case of `O=C(CCl)c1ccccc1Nc1cccc(C(F)(F)F)c1` [Compound 2, 2-chloro-1-(2-((3-(trifluoromethyl)phenyl)amino)phenyl)ethanone], the cytotoxicity at 10 µM [1] is reported as 30%, the “effect on GBM43 cancer cell viability / growth” value [1] is reported as “inhibited GBM43 cancer cell viability” and the “inhibition of TEAD4 binding to full-length Yap1” value [2] is reported as “dose- and time-dependent inhibition”. The “CTGF transcript levels versus control cells” value [3] was “significant reduction”, the “covalent adduct formation with TEAD4” value [4] was “a peak at 26229 was observed, corresponding to the TEAD4.compound 2 adduct” and the “adduct formation with TEAD4” value ([4]; after 30 min incubation) was ~100%.

In the case of `O=C(CCl)c1ncccc1Nc1cccc(C(F)(F)F)c1` [Compound 5, 2-chloro-1-(3-((3-(trifluoromethyl)phenyl)amino)pyridin-2-yl)ethanone], the cytotoxicity at 10 µM [1] is reported as 30%, the “effect on GBM43 cancer cell viability / growth” value [1] is reported as “inhibited GBM43 cancer cell viability” and the “CTGF transcript levels versus control cells” value [3] is reported as “significant reduction”. The “covalent adduct formation with TEAD4” value [4] was “formed more than one covalent complex”.

Reference: patent publication US20210403415A1, “COMPOUNDS AND METHODS TO ATTENUATE TUMOR PROGRESSION AND METASTASIS” (THE TRUSTEES OF INDIANA UNIVERSITY, priority 2018, published 2021)
